Measured values taken from the supplement of paper PMC3493320.

Test system: NCI-H295R
Assay: IC50 (antiproliferative, ATP content)
Conditions: 48 h
Method in brief: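 Serum-free ITS-supplemented DMEM was used to seed 1500 adrenocortical carcinoma cells per well in 1536-well plates, which were cultured overnight. Eight final concentrations of each library compound, from 0.6 nM to 46 µM, were added by pin transfer, followed by 48 h at 37 °C in 5% CO2 and a CellTiter-Glo ATP read after 20 min at room temperature. Luminescence was set against vehicle and positive-control wells, and the IC50 was obtained by logistic curve fitting. Any compound with no concentration response was entered as above the top dose.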

Row | SMILES | IC50 [µM]
1 | CC(C)Cn1cnc2c1c(=O)n(C)c(=O)n2C | > 46
2 | Cc1ccc(S(=O)(=O)O)cc1.NC1CCN(c2nc3c(cc2F)c(=O)c(C(=O)O)cn3-c2ccc(F)cc2F)C1 (stereo unspecified) | > 46
3 | CC(C)(O)C(Cl)(Cl)Cl | > 46
4 | CO[C@H]1O[C@@H]2O[C@@]3(C)CC[C@H]4[C@H](C)CC[C@@H]([C@H]1C)[C@@]24OO3 | > 46
5 | O=c1[n-]c(=O)n(Cl)c(=O)n1Cl.[Na+] | > 46
6 | CCCCC[C@H](O)/C=C/[C@@H]1[C@@H](C/C=C\CCCC(=O)O)[C@@H](O)C[C@H]1O.COC(N)(CO)CO | > 46
7 | C[C@@H](N)C(=O)O | > 46
8 | Oc1c(Br)cc(Br)cc1Br | > 46
9 | Oc1ccc(Cl)cc1 | > 46
10 | CC(C)CCCC(C)N (stereo unspecified) | > 46
11 | O[C@H]1[C@@H]([C@H](O)CO)O[C@H]2[C@@H]1O[C@@H]([C@@](Cl)(Cl)Cl)O2 | > 46
12 | Cc1ncc(CNC(=O)N(CCCl)N=O)c(N)n1 | > 46
13 | CCOc1ccccc1O[C@H](c1ccccc1)[C@H]1CNCCO1.CS(=O)(=O)O | > 46
14 | NC(=O)N[C@@H](CCC(=O)O)C(=O)O | > 46
15 | CNC(=O)Oc1ccc2c(c1)[C@]1(C)CCN(C)[C@@H]1N2C | > 46
16 | C[N+]1([O-])[C@@H]2CC[C@H]1C[C@@H](OC(=O)C(CO)c1ccccc1)C2.Cl (stereo partly specified) | > 46
17 | Oc1ccc2[nH]cc(CCCCN3CC=C(c4ccccc4)CC3)c2c1 | > 46
18 | CCCCCCCCCCCCCCCCO | > 46

Row | SMILES | IC50 [µM]
19 | CN(N=O)C(=O)N[C@@H]1[C@@H](O)[C@H](O)[C@@H](CO)O[C@@H]1O | > 46
20 | CCC1(C)CC(=O)NC(=O)C1 | > 46
21 | Oc1cc(Cl)c(Cl)cc1Cl | > 46
22 | CN1CCC(O)(c2ccc(F)cc2)C(C(=O)c2ccc(F)cc2)C1 (stereo unspecified) | > 46
23 | [O-][N+](=Nc1ccccc1)c1ccccc1 | > 46
24 | C[N+](C)(C)CCOC(=O)C(O)(c1ccccc1)c1ccccc1.[I-] | > 46
25 | Cl.Clc1ccc(C(OCCN2CCCCC2)c2ccccc2)cc1 (stereo unspecified) | > 46
26 | CN(C)N=Nc1nc[nH]c1C(N)=O | > 46
27 | C[C@@H]1CC[C@@]2(OC1)O[C@H]1C[C@H]3[C@@H]4CC[C@H]5C[C@@H](O)CC[C@]5(C)[C@H]4CC(=O)[C@]3(C)[C@H]1[C@@H]2C | > 46
28 | O=C([O-])P(=O)([O-])[O-].[Na+].[Na+].[Na+] | > 46
29 | C=CC(=O)O | > 46
30 | CCCCCCCCCCOc1cc2c(O)c(C(=O)OCC)cnc2cc1OCC | > 46
31 | COC(=O)[C@@H](N)CS.Cl | > 46
32 | Cc1nc(C)c(Cl)c(O)c1Cl | > 46
33 | O=P(O)(O)O | > 46
34 | CC(C)NC(C)C | > 46
35 | Cc1c(C)c2c(c(C)c1O)CC[C@@](C)(CCC[C@H](C)CCC[C@H](C)CCCC(C)C)O2 | > 46

Other lines, results leading:

Row | IC50 [µM] | SMILES
36 | > 46 | O=C1[C@H](CC[C@@H](C4=CC=C(F)C=C4)O)[C@@H]([C@]3=CC=C(O)C=C3)N1C2=CC=C(F)C=C2
37 | > 46 | CN1CCC(=C2c3ccccc3CCc3sccc32)CC1
38 | > 46 | O=C1c2ccccc2C(=O)C1c1ccc(Cl)cc1
39 | > 46 | COc1ccccc1OCC(O)CN1CCN(CC(=O)Nc2c(C)cccc2C)CC1 (stereo unspecified)
40 | > 46 | Nc1ccc(C(=O)[O-])c(O)c1.[Na+]
41 | > 46 | CCn1ccnc1CC1COc2ccccc2O1 (stereo unspecified)
42 | > 46 | O=C(O)c1ccccc1OP(=O)(O)O
43 | > 46 | Cc1c(Cn2ccnc2)c2ccccc2n1CCC(=O)O
44 | > 46 | CC(C)(Oc1ccc(Cl)cc1)C(=O)O
45 | > 46 | CCN1CCC[C@H]1CNC(=O)c1cc(S(N)(=O)=O)ccc1OC
46 | > 46 | CCCOc1cc(N)ccc1C(=O)OCCN(CC)CC.Cl
47 | > 46 | Cc1c(C)c2c(c(C)c1OC(=O)c1cccnc1)CC[C@@](C)(CCC[C@H](C)CCC[C@H](C)CCCC(C)C)O2
48 | > 46 | CO/N=C(\C(=O)N[C@@H]1C(=O)N2C(C(=O)O)=C(CSC(=O)c3ccco3)CS[C@H]12)c1csc(N)n1
49 | > 46 | CC(=O)[C@H]1CC[C@H]2[C@@H]3C[C@H](C)C4=CC(=O)CC[C@]4(C)[C@H]3[C@@H](O)C[C@]12C
50 | > 46 | CCOC(=O)C1=C(C)NC(C)=C(C(=O)OC)C1c1cccc([N+](=O)[O-])c1 (stereo unspecified)
51 | > 46 | CN1CC(=O)N=C1NC(=O)Nc1cccc(Cl)c1
52 | > 46 | OCC=Cc1ccccc1
53 | > 46 | Cl.O=C(O)/C=C/c1ccc(Cn2ccnc2)cc1
54 | > 46 | CC(=O)Oc1ccc(C)cc1
55 | > 46 | COc1ccccc1OC(=O)Oc1ccccc1OC
56 | > 46 | Nc1ncnc2c1ncn2[C@@H]1O[C@H](CO)[C@@H](O)[C@H]1O
57 | > 46 | O=C(CCCN1CCN(c2ccccn2)CC1)c1ccc(F)cc1
58 | > 46 | O=C([O-])c1cc(N=Nc2ccc(O)c(C(=O)[O-])c2)ccc1O.[Na+].[Na+]

Row | IC50 [µM] | SMILES
59 | > 46 | O=C1[O][Bi]([OH])[O]c2ccccc21
60 | > 46 | CC(C)NC(=N)NC(=N)Nc1ccc(Cl)cc1.Cl
61 | > 46 | C=CCOc1ccc(CC(=O)O)cc1Cl
62 | > 46 | CC(N/C(=N\C#N)Nc1ccncc1)C(C)(C)C.O (stereo unspecified)
63 | > 46 | N=C(N)NCCCC[C@@H]1NC(=O)CCSSC[C@@H](C(N)=O)NC(=O)[C@@H]2CCCN2C(=O)[C@H](Cc2c[nH]c3ccccc23)NC(=O)[C@H](CC(=O)O)NC(=O)CNC1=O
64 | > 46 | Cn1c(=O)c2c(ncn2CCO)n(C)c1=O
65 | > 46 | CC(C(O)c1ccc(O)cc1)N1CCC(Cc2ccccc2)CC1 (stereo unspecified)
66 | > 46 | N=C(N)c1ccc(OCCCCCOc2ccc(C(=N)N)cc2)cc1.O=S(=O)(O)CCO.O=S(=O)(O)CCO
67 | > 46 | CCCCCCOc1ccccc1C(N)=O
68 | > 46 | O=C(O)COc1ccc(CCNS(=O)(=O)c2ccccc2)s1
69 | > 46 | COc1ccc(CCN(C)CCCC(C#N)(c2cc(OC)c(OC)c(OC)c2)C(C)C)cc1OC.Cl (stereo unspecified)
70 | > 46 | Cc1ccnc(NS(=O)(=O)c2ccc(N)cc2)n1
71 | > 46 | CC1CCc2cc(F)cc3c(=O)c(C(=O)O)cn1c23 (stereo unspecified)
72 | > 46 | NC(=O)N1c2ccccc2C=Cc2ccccc21
73 | > 46 | CCC1(c2ccccc2)C(=O)NCNC1=O
74 | > 46 | CN(CCOc1ccc(CC2SC(=O)NC2=O)cc1)c1ccccn1 (stereo unspecified)
75 | > 46 | CCCCCCCCOc1ccc(C(=O)c2ccccc2)c(O)c1
76 | > 46 | CC(=O)OCC(=O)[C@@]12OC3(CCCC3)O[C@@H]1C[C@H]1C3CCC4=CC(=O)C=C[C@]4(C)[C@@]3(F)[C@@H](O)C[C@@]12C (stereo partly specified)
77 | > 46 | Cc1ccc(C(C)C)c(O)c1
78 | > 46 | CC(C)C[C@@H](NC(=O)[C@@H](O)[C@H](N)Cc1ccccc1)C(=O)O.Cl
79 | > 46 | CCCN(CCC)S(=O)(=O)c1ccc(C(=O)O)cc1
80 | > 46 | COc1ccccc1N1CCN(CCCC(=O)c2ccc(F)cc2)CC1
81 | > 46 | CCCOC(=O)c1ccc(O)cc1
